Here are results for three compounds from ChEMBL document CHEMBL1124276, “Evaluation of the importance of hydrophobic interactions in drug binding to dihydrofolate reductase” (J Med Chem, 1988).

Experiment [1] deals with T1, Dihydrofolate reductase (Escherichia coli, UniProt P0ABQ4). Kind of experiment: Thermodynamic Dissociation Constant for compound-Tyr31-dihydrofolate reductase (DHFR) complex at pH 8.5.
The target of experiment [2] is T1, Dihydrofolate reductase. Kind of experiment: Thermodynamic Dissociation Constant for compound-Val31-dihydrofolate reductase (DHFR) complex at pH 7.
The target in experiment [3] is T1, Dihydrofolate reductase. Kind of experiment: Thermodynamic Dissociation Constant for compound-Val31-dihydrofolate reductase (DHFR) complex at pH 8.5.
For experiment [4], the target named is T1, Dihydrofolate reductase. Kind of experiment: Thermodynamic Dissociation Constant for compound-Phe31-dihydrofolate reductase (DHFR) complex at pH 7.
For experiment [5], the target named is T1, Dihydrofolate reductase. Kind of experiment: Thermodynamic Dissociation Constant for compound-Phe31-dihydrofolate reductase (DHFR) complex at pH 8.5.
The target of experiment [6] is T1, Dihydrofolate reductase. Kind of experiment: Thermodynamic Dissociation Constant for compound-Tyr31-dihydrofolate reductase (DHFR) complex at pH 7.
Experiment [7] has as its target T2, Dihydrofolate reductase (Escherichia coli, UniProt P0ABQ4).
T2 sequence (P0ABQ4 whole entry): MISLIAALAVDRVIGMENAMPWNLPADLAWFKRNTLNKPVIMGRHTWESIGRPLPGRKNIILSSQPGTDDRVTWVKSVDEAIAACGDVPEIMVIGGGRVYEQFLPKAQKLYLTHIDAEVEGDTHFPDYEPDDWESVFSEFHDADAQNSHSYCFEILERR
Kind of experiment: Inhibition constant for Phe31-dihydrofolate reductase (DHFR)-NADPH-Compound complex.

Experiment [8] has as its target T1, Dihydrofolate reductase. Kind of experiment: Inhibition constant for Tyr31-dihydrofolate reductase (DHFR)-NADPH-Compound complex.
The target in experiment [9] is T1, Dihydrofolate reductase. Kind of experiment: Inhibition constant for Val31-dihydrofolate reductase (DHFR)-NADPH-Compound complex.
In experiment [10] the target is T1, Dihydrofolate reductase. Kind of experiment: Thermodynamic Dissociation Constant for compound-Tyr31-dihydrofolate reductase (DHFR) complex at pH 6.
In experiment [11] the target is T1, Dihydrofolate reductase. Kind of experiment: Thermodynamic Dissociation Constant for compound-Phe31-dihydrofolate reductase (DHFR) complex at pH 6.
Experiment [12] concerns the target T3, Dihydrofolate reductase (Escherichia coli) (UniProt P0ABQ4).
T3 sequence (whole entry): T2 sequence (P0ABQ4 whole entry)
Description: Dissociation constant at(Koff) Tyr-31 of dihydrofolate reductase (DHFR)

Experiment [13] deals with T3, Dihydrofolate reductase (Escherichia coli). This is another data set of the same source.
Description: Dissociation constant(Koff) at Phe-31 of dihydrofolate reductase (DHFR)
Experiment [14] has the same target. The source holds these as a separate data set.
Description: Association constant(Kon) at Tyr-31 of dihydrofolate reductase (DHFR)
Experiment [15] has the same target. This is another data set of the same source.
Description: Constant at Tyr-31(Kr) of dihydrofolate reductase (DHFR)
For experiment [16] the target is unchanged. This is another data set of the same source.
Description: Constant, Kr at Phe-31 of dihydrofolate reductase (DHFR)

Broadly, the Kd is the free concentration of one partner at which half of the binding sites on the other are occupied at equilibrium, for simple one-to-one binding. A high value points to lower affinity. In the case of `NC(=O)c1ccc[n+]([C@H]2O[C@@H](COP(=O)([O-])OP(=O)(O)OC[C@H]3O[C@@H](n4cnc5c(N)ncnc54)[C@H](OP(=O)(O)O)[C@@H]3O)[C@H](O)[C@@H]2O)c1` [NICOTINAMIDE ADENINE DINUCLEOTIDE PHOSPHATE], the Kd on Dihydrofolate reductase [1] came to 400 nM; at Dihydrofolate reductase [2] it was 220 nM; on Dihydrofolate reductase [3] it was 300 nM; at Dihydrofolate reductase [4], 380 nM; at Dihydrofolate reductase [5], 490 nM; at Dihydrofolate reductase [6], 340 nM.
Usually Ki stands for a measure of affinity in units of concentration, obtained from inhibition or displacement. High values mean a looser hold on the target, low ones a stronger hold on the target. With `Cc1nc2nc(N)nc(N)c2nc1C`, the Ki at Dihydrofolate reductase [7] came to 44 nM; at Dihydrofolate reductase [8], 57 nM; at Dihydrofolate reductase [9], 9100 nM. For the same compound, the Kd turned out to be 3900 nM on Dihydrofolate reductase [10] and 1600 nM at Dihydrofolate reductase [11]. For the same compound, the k off in experiment [12] was found to be 25 s⁻¹; in experiment [13] it was 35 s⁻¹. In experiment [14], this compound registered a k on of 6.8e+06 M⁻¹ s⁻¹. The Kr in experiment [15] stood at 25 s⁻¹; in experiment [16] it was 24 s⁻¹.
Regarding `Nc1nc2ncc(CNc3ccc(C(=O)N[C@@H](CCC(=O)O)C(=O)O)cc3)nc2c(=O)[nH]1` [FOLIC ACID], the results for the Kd on Dihydrofolate reductase [2], on Dihydrofolate reductase [4] and on Dihydrofolate reductase [6] were 4800 nM, 810 nM and 4400 nM, respectively.
